Target: T1, hamster SUR1 (Cricetus cricetus, UniProt Q09427)
T1 construct: expressed in transfected cells; host or cells: COS-1 cells, transient transfection (pcDNA vector), membrane preparation
Assay: Competitive binding to sulfonylurea and KCO sites of SUR1 ([3H]glibenclamide displacement, COS-cell membranes)
Conditions: SUR1 versus SUR2 selectivity, in words
Experimental: Competitive binding experiments were performed to characterize the affinity of the test compounds for the binding sites for sulfonylureas and KATP channel openers (=KCOs) on hamster SUR1. To assess the affinity for the sulfonylurea site membranes from COS-cells transiently expressing hamster SUR1 were incubated in the presence of [^3H]glibenclamide with increasing concentrations of test compounds. […] Per curve 9-15 distinct concentrations were tested covering the relevant range. All measurements were repeated at least 5 times in independent experiments.
[^3H]glibenclamide (specific activity 51 Ci mmol^−1) was obtained from NEN (Dreieich, Germany). If suitable, stock solutions were prepared in dimethylsulfoxide with a final solvent concentration in the media below 1%.
SUR- or Kir6.x isoforms were used either subcloned in the pcDNA (hamster SUR1, mouse Kir6.2) or pCMV vector (rat SUR2A, SUR2B).
For transfection the cells were incubated 4 hours in a Tris-buffered salt solution containing DNA (5-10 μg/ml) plus DEAE-dextran (1 mg/ml), 2 min in HEPES-buffered salt solution plus dimethylsulfoxide (10%) and 4 hours in DMEM-HG plus chloroquine (100 μM). Cells were then returned to DMEM-HG plus 10% FCS. […] For binding experiments resuspended membranes (final protein concentration 5-50 μg/ml) were incubated in “Tris-buffer” (50 mM, pH 7.4) containing either [^3H]glibenclamide (final concentration 0.3 nM or 3 nM and nonspecific binding defined by 100 nM or 1 μM glibenclamide for SUR1 or SUR2Y1205S-isoforms, respectively) or [^3H]P1075 (final concentration 3 nM, nonspecific binding defined by 100 μM pinacidil) and increasing concentrations of the test compounds. […] Incubations were carried out for 1 h at room temperature and were terminated by rapid filtration through Whatman GF/B filters.
The inhibition constant (Ki value) of the test substances was calculated from the respective IC50 value, and was stated as the negative logarithmised value thereof (pKi).

T1 sequence (Q09427 whole entry): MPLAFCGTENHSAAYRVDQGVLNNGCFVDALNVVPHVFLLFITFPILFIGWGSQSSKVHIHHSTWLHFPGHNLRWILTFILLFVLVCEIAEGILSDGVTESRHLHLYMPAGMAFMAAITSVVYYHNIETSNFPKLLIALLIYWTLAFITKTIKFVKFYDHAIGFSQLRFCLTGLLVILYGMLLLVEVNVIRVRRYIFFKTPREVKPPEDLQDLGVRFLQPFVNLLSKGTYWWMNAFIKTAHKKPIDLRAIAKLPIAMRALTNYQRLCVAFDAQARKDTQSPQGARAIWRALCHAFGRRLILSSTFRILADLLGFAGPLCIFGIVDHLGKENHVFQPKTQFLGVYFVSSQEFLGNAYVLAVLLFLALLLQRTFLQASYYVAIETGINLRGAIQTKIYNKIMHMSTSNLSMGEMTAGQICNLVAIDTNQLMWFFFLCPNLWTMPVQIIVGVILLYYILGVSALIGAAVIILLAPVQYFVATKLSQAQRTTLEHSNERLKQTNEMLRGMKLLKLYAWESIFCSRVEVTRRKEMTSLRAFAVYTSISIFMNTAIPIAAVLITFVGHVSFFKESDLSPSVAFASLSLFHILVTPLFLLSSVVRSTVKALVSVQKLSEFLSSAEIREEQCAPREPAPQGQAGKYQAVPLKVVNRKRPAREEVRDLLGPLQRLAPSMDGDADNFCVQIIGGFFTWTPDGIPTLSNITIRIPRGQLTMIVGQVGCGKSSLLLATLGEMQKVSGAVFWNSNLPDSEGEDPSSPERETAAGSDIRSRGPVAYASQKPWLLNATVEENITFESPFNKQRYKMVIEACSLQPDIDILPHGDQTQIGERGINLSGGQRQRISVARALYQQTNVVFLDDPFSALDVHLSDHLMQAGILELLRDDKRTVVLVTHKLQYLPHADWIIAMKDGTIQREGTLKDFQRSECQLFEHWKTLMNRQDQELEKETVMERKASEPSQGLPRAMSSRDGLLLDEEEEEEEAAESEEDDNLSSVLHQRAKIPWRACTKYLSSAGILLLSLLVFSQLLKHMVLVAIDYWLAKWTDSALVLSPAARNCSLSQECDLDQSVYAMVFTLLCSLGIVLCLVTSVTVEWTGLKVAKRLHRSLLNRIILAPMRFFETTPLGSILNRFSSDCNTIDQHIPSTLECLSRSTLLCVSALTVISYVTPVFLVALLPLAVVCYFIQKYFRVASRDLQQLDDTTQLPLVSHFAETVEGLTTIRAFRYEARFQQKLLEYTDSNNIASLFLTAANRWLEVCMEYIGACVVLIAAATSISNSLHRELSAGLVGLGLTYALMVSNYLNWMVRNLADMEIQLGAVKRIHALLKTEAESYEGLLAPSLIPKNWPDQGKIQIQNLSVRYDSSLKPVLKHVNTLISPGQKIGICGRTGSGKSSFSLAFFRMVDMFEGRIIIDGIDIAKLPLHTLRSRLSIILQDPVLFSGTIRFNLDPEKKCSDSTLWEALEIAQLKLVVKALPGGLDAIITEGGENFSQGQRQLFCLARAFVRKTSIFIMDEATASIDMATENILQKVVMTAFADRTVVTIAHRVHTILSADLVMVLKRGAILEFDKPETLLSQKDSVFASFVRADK

Row | Compound | pki (SUR1) compared with pki (SUR2)
1 | O=C(NN1CCCCC1)c1nn(-c2ccc(Cl)cc2Cl)c2c1CCCc1cc(Cl)ccc1-2 [8-chloro-1-(2,4-dichlorophenyl)-N-piperidin-1-yl-1,4,5,6-tetrahydrobenzo[6,7]cyclohepta[1,2-c]pyrazole-3-carboxamide] | pki (SUR1) larger than pki (SUR2)
2 | Cc1c(NC(=O)c2ccccc2)nc(-c2ccc(Cl)cc2Cl)n1-c1ccc(Cl)cc1 [N-[1-(4-chlorophenyl)-2-(2,4-di-chlorophenyl)-5-methyl-1H-imidazol-4-yl]benzamide] | pki (SUR1) larger than pki (SUR2)
3 | CSc1c(C(=O)NC2CCCCC2)nc(-c2ccc(Cl)cc2Cl)n1-c1ccc(Cl)cc1 [1-(4-chlorophenyl)-N-cyclohexyl-2-(2,4-dichlorophenyl)-5-(methylthio)-1H-imidazole-4-carboxamide] | pki (SUR1) larger than pki (SUR2)
4 | CCCCCCC(C)(C)c1ccc([C@@H]2C[C@H](O)CC[C@H]2CCCO)c(O)c1 [5-(1,1-dimethylheptyl)-2-[(1R,2R,5R)-5-hydroxy-2-(3-hydroxypropyl)cyclohexyl]-phenol] | pki (SUR1) larger than pki (SUR2)
5 | CNC(=NS(=O)(=O)N(C)C)N1CC(c2cccc(F)c2)C(c2ccc(Cl)cc2)=N1 (stereo not drawn) [3-(4-chlorophenyl)-N′-[(dimethyl-amino)sulfonyl]-4-(3-fluorophenyl)-N-methyl-4,5-dihydro-1H-pyrazole-1-carboximidamide] | pki (SUR1) larger than pki (SUR2)
6 | CCCCCc1nc(-c2ccc(Cl)cc2Cl)n(-c2ccc(Cl)cc2)c1C [1-(4-chlorophenyl)-2-(2,4-dichlorophenyl)-5-methyl-4-pentyl-1H-imidazole] | pki (SUR1) larger than pki (SUR2)
7 | CCCCC(C)(O)c1nc(-c2ccc(Cl)cc2Cl)n(-c2ccc(Cl)cc2)c1C (stereo not drawn) [2-[1-(4-chlorophenyl)-2-(2,4-dichlorophenyl)-5-methyl-1H-imidazol-4-yl]hexan-2-ol] | pki (SUR1) larger than pki (SUR2)
8 | O=C1c2ccccc2S(=O)(=O)N1C1CN(C(c2ccc(Cl)cc2)c2ccc(Cl)cc2)C1 [2-{1-[bis(4-chlorophenyl)methyl]azetidin-3-yl}-1,2-benzisothiazol-3(2H)-one 1,1-dioxide] | pki (SUR1) larger than pki (SUR2)
9 | CNC(=NS(=O)(=O)N1CCOCC1)N1CC(c2ccccc2)C(c2ccc(Cl)cc2)=N1 (stereo not drawn) [3-(4-chlorophenyl)-N-methyl-N′-(morpholin-4-ylsulfonyl)-4-phenyl-4,5-dihydro-1H-pyrazole-1-carboximidamide] | pki (SUR1) larger than pki (SUR2)
10 | CNC(=NS(=O)(=O)c1ccc(Cl)cc1)N1CC(c2cccnc2)C(c2ccc(Cl)cc2)=N1 (stereo not drawn) [3-(4-chlorophenyl)-N′-[(4-chlorophenyl)sulfonyl]-N-methyl-4-pyridin-3-yl-4,5-dihydro-1H-pyrazole-1-carboximidamide] | pki (SUR1) larger than pki (SUR2)
11 | CCCCCNC(=O)c1nc(-c2ccc(Cl)cc2Cl)n(-c2ccc(Br)cc2)c1CC [1-(4-bromophenyl)-2-(2,4-dichlorophenyl)-5-ethyl-N-pentyl-1H-imidazole-4-carboxamide] | pki (SUR1) larger than pki (SUR2)
12 | O=C(NS(=O)(=O)c1ccc(Cl)cc1)c1cc(-c2ccc(Br)cc2)n(-c2ccc(Cl)cc2Cl)n1 [5-(4-bromophenyl)-N-[(4-chlorophenyl)sulfonyl]-1-(2,4-dichlorophenyl)-1H-pyrazole-3-carboxamide] | pki (SUR1) larger than pki (SUR2)
13 | CCN(CC)C(=O)c1cn(-c2ccc(Cl)cc2)c(-c2ccc(Cl)cc2Cl)n1 [1-(4-chlorophenyl)-2-(2,4-dichlorophenyl)-N,N-diethyl-1H-imidazole-4-carboxamide] | pki (SUR1) larger than pki (SUR2)
14 | CCc1c(C(=O)NN2CCCCC2)nc(-c2ccc(Cl)cc2Cl)n1-c1ccc(Br)cc1 [1-(4-bromophenyl)-2-(2,4-dichloro-phenyl)-5-ethyl-N-piperidin-1-yl-1H-imidazole-4-carboxamide] | pki (SUR1) larger than pki (SUR2)
15 | CN(C)S(=O)(=O)N=C(NCCF)N1CC(c2ccccc2)C(c2ccc(Cl)cc2)=N1 (stereo not drawn) [3-(4-chlorophenyl)-N′-[(dimethylamino)sulfonyl]-N-(2-fluoro-ethyl)-4-phenyl4,5-dihydro-1H-pyrazole-1-carboximidamide] | pki (SUR1) larger than pki (SUR2)
16 | NC(=NS(=O)(=O)c1ccc(Cl)cc1)N1CC(c2ccccc2)C(c2ccc(Cl)cc2)=N1 (stereo not drawn) [3-(4-chlorophenyl)-N′-[(4-chlorophenyl)sulfonyl]-4-phenyl-4,5-dihydro-1H-pyrazole-1-carboximidamide] | pki (SUR1) larger than pki (SUR2)
17 | NC(=NS(=O)(=O)c1ccc(Cl)cc1)N1C[C@H](c2ccccc2)C(c2ccc(Cl)cc2)=N1 [(4S)-3-(4-chlorophenyl)-N′-[(4-chlorophenyl)sulfonyl]-4-phenyl-4,5-dihydro-1H-pyrazole-1-carboximidamide] | pki (SUR1) larger than pki (SUR2)
18 | O=S(=O)(N=C(NCc1cccnc1)N1CC(c2ccccc2)C(c2ccc(Cl)cc2)=N1)c1ccc(Cl)cc1 (stereo not drawn) [3-(4-chlorophenyl)-N′-[(4-chlorophenyl)sulfonyl]-4-phenyl-N-(pyridin-3-ylmethyl)-4,5-dihydro-1H-pyrazole-1-carboximidamide] | pki (SUR1) larger than pki (SUR2)
19 | CS(=O)(=O)C(=C1CN(C(c2ccc(Cl)cc2)c2ccc(Cl)cc2)C1)c1cc(F)cc(F)c1 [1-[bis(4-chlorophenyl)methyl]-3-[(3,5-difluorophenyl)(methylsulfonyl)-methylene]azetidine] | pki (SUR1) larger than pki (SUR2)
20 | CNC(=NS(=O)(=O)N1CCCCC1)C1=NN(c2ccc(Cl)cc2)C(c2ccccc2)C1 (stereo not drawn) [1-(4-chlorophenyl)-N-methyl-5-phenyl-N′-(piperidin-1-yl-sulfonyl)-4,5-dihydro-1H-pyrazole-3-carboximidamide] | pki (SUR1) larger than pki (SUR2)
21 | N[C@@H](Cc1ccc(Cl)c(Cl)c1)C(=O)N1CC(c2ccccc2)C(c2ccc(Cl)cc2)=N1 (stereo partly drawn) [(2S)-1-[3-(4-chlorophenyl)-4-phenyl-4,5-dihydro-1H-pyrazol-1-yl]-3-(3,4-dichloro-phenyl)-1-oxopropan-2-amine] | pki (SUR1) larger than pki (SUR2)
22 | CCC1CN=C(N2CC(c3ccccc3)C(c3ccc(Cl)cc3)=N2)O1 (stereo not drawn) [2-[3-(4-chlorophenyl)-4-phenyl-4,5-dihydro-1H-pyrazol-1-yl]-5-ethyl-4,5-dihydro-1,3-oxazole] | pki (SUR1) larger than pki (SUR2)
23 | CNC(=NS(=O)(=O)N1CCOCC1)C1=NN(c2ccc(Cl)cc2Cl)C(c2ccccc2)C1 (stereo not drawn) [1-(2,4-dichlorophenyl)-N-methyl-N′-(morpholin-4-ylsulfonyl)-5-phenyl-4,5-dihydro-1H-pyrazole-3-carboximidamide] | pki (SUR1) larger than pki (SUR2)
24 | CN1CCC(CNC(=NS(=O)(=O)c2ccc(Cl)cc2)N2CC(c3ccccc3)C(c3ccc(Cl)cc3)=N2)C1 (stereo not drawn) [3-(4-chlorophenyl)-N′-[(4-chlorophenyl)sulfonyl]-N-[(1-methylpyrrolidin-3-yl)-methyl]-4-phenyl-4,5-dihydro-1H-pyrazole-1-carboximidamide] | pki (SUR1) larger than pki (SUR2)

Source: patent publication US8058264B2, “Pharmaceutical compositions comprising CB1 cannabinoid receptor antagonists and potassium channel openers for the treatment of obesity and related conditions” (Abbott Products GmbH, priority 2004, dated 2011)
